# Measurements: ChEMBL document CHEMBL5346907, “Discovery of a novel oral type Ⅰ CDK8 inhibitor against acute myeloid leukemia” (Eur J Med Chem, 2023)
# Active and inactive are the calls of the source. The rule behind the calls is not given here.
# Assays:
# [1] = Bioavailability in Sprague-Dawley rat at 10 mg/kg, po; type: ADME, organism-based; conditions: in vivo
# [2] = molecular target: Tyrosine-protein kinase FRK (Homo sapiens) (UniProt P42685); test: Inhibition of FRK (unknown origin) at 1 uM preincubated for 10 mins followed by substrate addition measured for 60 to 120 mins by HTRF assay relative to control; conditions: time 70-130 min
# [3] = Acute toxicity in C57BL/6 mouse assessed as histopathological change in liver at 2000 mg/kg, IG measured for 14 days by H&E staining based analysis; type: organism-based; conditions: in vivo, po, 336 h, time 14 day
# [4] = molecular target: Tyrosine-protein kinase Fgr (Homo sapiens) (UniProt P09769); test: Inhibition of FGR (unknown origin) at 1 uM preincubated for 10 mins followed by substrate addition measured for 60 to 120 mins by HTRF assay relative to control; conditions: time 70-130 min
# [5] = molecular target: Tyrosine-protein kinase JAK1 (Homo sapiens) (UniProt P23458); test: Inhibition of JAK1 (unknown origin) at 1 uM preincubated for 10 mins followed by substrate addition measured for 60 to 120 mins by HTRF assay relative to control; conditions: time 70-130 min
# [6] = molecular target: Tyrosine-protein kinase Yes (Homo sapiens) (UniProt P07947); test: Inhibition of YES (unknown origin) at 1 uM preincubated for 10 mins followed by substrate addition measured for 60 to 120 mins by HTRF assay relative to control; conditions: time 70-130 min
# [7] = Acute toxicity in C57BL/6 mouse assessed as histopathological change in lung at 2000 mg/kg, IG measured for 14 days by H&E staining based analysis; type: organism-based; conditions: in vivo, po, 336 h, time 14 day
# HL-60 [8] = test: Effect on cell cycle at S phase in human HL-60 cells at 1 to 10 uM incubated for 48 hrs by […]PI staining based flow cytometry; type: functional; conditions: dose 1-10 µM
# HL-60 [9] = test: Induction of apoptosis in human HL-60 cells assessed as early apoptosis cells at 10 uM incubated for 48 hrs by annexin V-FITC/PI staining based flow cytometry (reference value: 2.08 %); type: functional
# [10] = AUC (0 to infinity) in Sprague-Dawley rat at 10 mg/kg, po; type: ADME, organism-based; design: dose 10 mg/kg, route po; conditions: in vivo
# [11] = molecular target: Ephrin type-A receptor 8 (Homo sapiens) (UniProt P29322); test: Inhibition of EPHA8 (unknown origin) at 1 uM preincubated for 10 mins followed by substrate addition measured for 60 to 120 mins by HTRF assay relative to control; conditions: time 70-130 min
# [12] = molecular target: Tyrosine-protein kinase ZAP-70 (Homo sapiens) (UniProt P43403); test: Inhibition of ZAP70 (unknown origin) at 1 uM preincubated for 10 mins followed by substrate addition measured for 60 to 120 mins by HTRF assay relative to control; conditions: time 70-130 min
# [13] = molecular target: Ephrin type-B receptor 4 (Homo sapiens) (UniProt P54760); test: Inhibition of EPHB4 (unknown origin) at 1 uM preincubated for 10 mins followed by substrate addition measured for 60 to 120 mins by HTRF assay relative to control; conditions: time 70-130 min
# [14] = molecular target: Tyrosine-protein kinase receptor UFO (Homo sapiens) (UniProt P30530); test: Inhibition of AXL (unknown origin) at 1 uM preincubated for 10 mins followed by substrate addition measured for 60 to 120 mins by HTRF assay relative to control; conditions: time 70-130 min
# [15] = molecular target: T1, Cyclin-dependent kinase 8 (Homo sapiens, UniProt P49336); test: Binding affinity to CDK8 in human HCT-116 cells assessed as increase in degradation temperature of protein at 5 uM incubated for 6 hrs followed by heating for 4 mins by CETSA assay (reference value: 55 degreeC); type: cell-based; conditions: time 6.06 hrs
# HL-60 [16] = test: Induction of apoptosis in human HL-60 cells assessed as necrotic cells at 10 uM incubated for 48 hrs by annexin V-FITC/PI staining based flow cytometry (reference value: 0.26 %); type: functional
# [17] = molecular target: Ephrin type-B receptor 3 (Homo sapiens) (UniProt P54753); test: Inhibition of EPHB3 (unknown origin) at 1 uM preincubated for 10 mins followed by substrate addition measured for 60 to 120 mins by HTRF assay relative to control; conditions: time 70-130 min
# [18] = molecular target: Insulin receptor-related protein (Homo sapiens) (UniProt P14616); test: Inhibition of IRR (unknown origin) at 1 uM preincubated for 10 mins followed by substrate addition measured for 60 to 120 mins by HTRF assay relative to control; conditions: time 70-130 min
# [19] = molecular target: Tyrosine-protein kinase HCK (Homo sapiens) (UniProt P08631); test: Inhibition of HCK (unknown origin) at 1 uM preincubated for 10 mins followed by substrate addition measured for 60 to 120 mins by HTRF assay relative to control; conditions: time 70-130 min
# [20] = molecular target: Discoidin domain-containing receptor 2 (Homo sapiens) (UniProt Q16832); test: Inhibition of DDR2 (unknown origin) at 1 uM preincubated for 10 mins followed by substrate addition measured for 60 to 120 mins by HTRF assay relative to control; conditions: time 70-130 min
# [21] = molecular target: Cyclin-dependent kinase 13/Cyclin-K (Homo sapiens) (UniProt Q14004+O75909); test: Inhibition of CDK13/Cyclin K (unknown origin) at 1 uM preincubated for 10 mins followed by substrate addition measured for 60 to 120 mins by HTRF assay relative to control; type: protein-complex assay; conditions: time 70-130 min
# [22] = molecular target: Ephrin type-A receptor 5 (Homo sapiens) (UniProt P54756); test: Inhibition of EPHA5 (unknown origin) at 1 uM preincubated for 10 mins followed by substrate addition measured for 60 to 120 mins by HTRF assay relative to control; conditions: time 70-130 min
# HL-60 [23] = test: Induction of apoptosis in human HL-60 cells assessed as viable cells at 1 uM incubated for 48 hrs by annexin V-FITC/PI staining based flow cytometry (reference value: 96.5 %); type: functional; conditions: read-out: Activity
# [24] = molecular target: Tyrosine-protein kinase Mer (Homo sapiens) (UniProt Q12866); test: Inhibition of MER (unknown origin) at 1 uM preincubated for 10 mins followed by substrate addition measured for 60 to 120 mins by HTRF assay relative to control; conditions: time 70-130 min
# [25] = Acute toxicity in C57BL/6 mouse assessed as histopathological change in spleen at 2000 mg/kg, IG measured for 14 days by H&E staining based analysis; type: organism-based; conditions: in vivo, po, 336 h, time 14 day
# CDK9/cyclin T1 = CDK9/cyclin T1 (Homo sapiens, UniProt P50750); test: Inhibition of CDK9/Cyclin T1 (unknown origin) preincubated for 10 mins followed by substrate addition measured for 60 to 120 mins by HTRF assay; type: protein-complex assay
# [26] = molecular target: Non-receptor tyrosine-protein kinase TYK2 (Homo sapiens) (UniProt P29597); test: Inhibition of TYK2 (unknown origin) at 1 uM preincubated for 10 mins followed by substrate addition measured for 60 to 120 mins by HTRF assay relative to control; conditions: time 70-130 min
# [27] = molecular target: Tyrosine-protein kinase ABL2 (Homo sapiens) (UniProt P42684); test: Inhibition of ABL2 (unknown origin) at 1 uM preincubated for 10 mins followed by substrate addition measured for 60 to 120 mins by HTRF assay relative to control; conditions: time 70-130 min
# [28] = molecular target: Tyrosine-protein kinase Fes/Fps (Homo sapiens) (UniProt P07332); test: Inhibition of FES (unknown origin) at 1 uM preincubated for 10 mins followed by substrate addition measured for 60 to 120 mins by HTRF assay relative to control; conditions: time 70-130 min
# [29] = molecular target: T1, Cyclin-dependent kinase 8; test: Binding affinity to flag-tagged CDK8 (unknown origin) transfected in HEK-293T cells upto 4 uM incubated for 12 hrs by biotin pull down based Western blot analysis; type: cell-based
# T1 sequence (P49336 whole entry): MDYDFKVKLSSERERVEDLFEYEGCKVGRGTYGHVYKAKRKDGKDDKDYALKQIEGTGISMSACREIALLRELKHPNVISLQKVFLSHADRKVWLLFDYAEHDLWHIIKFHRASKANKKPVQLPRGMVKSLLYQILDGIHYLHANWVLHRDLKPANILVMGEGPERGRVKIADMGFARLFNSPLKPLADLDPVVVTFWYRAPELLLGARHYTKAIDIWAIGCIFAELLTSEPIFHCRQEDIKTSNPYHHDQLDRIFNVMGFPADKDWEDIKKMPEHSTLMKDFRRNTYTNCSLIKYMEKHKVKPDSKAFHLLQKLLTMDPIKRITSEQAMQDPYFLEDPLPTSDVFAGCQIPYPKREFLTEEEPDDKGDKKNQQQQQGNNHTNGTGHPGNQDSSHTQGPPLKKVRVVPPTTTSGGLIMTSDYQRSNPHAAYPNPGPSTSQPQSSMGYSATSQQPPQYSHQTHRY
# Sequence of Tyrosine-protein kinase FRK (Homo sapiens) (P42685 whole entry): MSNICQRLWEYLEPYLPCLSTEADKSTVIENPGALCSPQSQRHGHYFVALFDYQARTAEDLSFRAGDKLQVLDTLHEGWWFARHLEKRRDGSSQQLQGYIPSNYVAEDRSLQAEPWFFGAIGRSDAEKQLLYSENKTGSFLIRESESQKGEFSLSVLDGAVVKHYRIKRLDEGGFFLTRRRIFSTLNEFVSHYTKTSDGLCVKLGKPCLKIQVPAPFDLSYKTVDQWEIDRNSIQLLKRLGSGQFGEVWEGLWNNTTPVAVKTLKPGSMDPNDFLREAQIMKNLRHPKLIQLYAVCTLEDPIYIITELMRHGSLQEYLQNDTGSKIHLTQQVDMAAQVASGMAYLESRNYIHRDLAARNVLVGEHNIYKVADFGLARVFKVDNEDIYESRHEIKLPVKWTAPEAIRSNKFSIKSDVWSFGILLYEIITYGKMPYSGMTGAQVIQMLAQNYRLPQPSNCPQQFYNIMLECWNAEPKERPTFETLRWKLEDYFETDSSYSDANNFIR
# Sequence of Tyrosine-protein kinase HCK (Homo sapiens) (P08631 2-526 limits assumed): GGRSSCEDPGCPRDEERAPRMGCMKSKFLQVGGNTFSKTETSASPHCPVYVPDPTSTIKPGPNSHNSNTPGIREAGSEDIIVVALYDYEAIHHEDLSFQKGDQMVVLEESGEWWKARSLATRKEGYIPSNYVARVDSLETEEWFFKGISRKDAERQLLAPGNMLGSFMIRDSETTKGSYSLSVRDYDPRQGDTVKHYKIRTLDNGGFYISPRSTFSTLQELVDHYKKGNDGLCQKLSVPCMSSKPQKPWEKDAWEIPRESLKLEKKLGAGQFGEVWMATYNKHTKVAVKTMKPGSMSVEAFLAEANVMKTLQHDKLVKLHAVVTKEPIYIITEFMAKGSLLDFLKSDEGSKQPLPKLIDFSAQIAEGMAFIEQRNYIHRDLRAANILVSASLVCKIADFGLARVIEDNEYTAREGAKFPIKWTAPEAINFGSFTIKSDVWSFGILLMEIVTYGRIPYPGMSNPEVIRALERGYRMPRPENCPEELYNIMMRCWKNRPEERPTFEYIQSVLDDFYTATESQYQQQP
# Sequence of Tyrosine-protein kinase Yes (Homo sapiens) (P07947 2-543 limits assumed): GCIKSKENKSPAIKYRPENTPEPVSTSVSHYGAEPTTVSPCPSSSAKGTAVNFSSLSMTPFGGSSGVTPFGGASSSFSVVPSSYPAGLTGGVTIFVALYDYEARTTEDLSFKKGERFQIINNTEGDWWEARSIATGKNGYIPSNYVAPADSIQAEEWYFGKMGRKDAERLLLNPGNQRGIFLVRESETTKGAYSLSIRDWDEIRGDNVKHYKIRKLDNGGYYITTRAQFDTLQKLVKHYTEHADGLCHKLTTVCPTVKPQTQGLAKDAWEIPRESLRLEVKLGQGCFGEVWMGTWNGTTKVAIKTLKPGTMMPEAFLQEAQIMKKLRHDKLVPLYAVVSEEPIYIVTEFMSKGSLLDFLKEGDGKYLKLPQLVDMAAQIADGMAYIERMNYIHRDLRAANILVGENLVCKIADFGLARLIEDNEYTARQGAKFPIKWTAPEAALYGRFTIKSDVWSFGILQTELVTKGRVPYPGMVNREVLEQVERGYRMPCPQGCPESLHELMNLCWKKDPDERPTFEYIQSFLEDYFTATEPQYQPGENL
# Sequence of Insulin receptor-related protein (Homo sapiens) (P14616 27-742 limits assumed): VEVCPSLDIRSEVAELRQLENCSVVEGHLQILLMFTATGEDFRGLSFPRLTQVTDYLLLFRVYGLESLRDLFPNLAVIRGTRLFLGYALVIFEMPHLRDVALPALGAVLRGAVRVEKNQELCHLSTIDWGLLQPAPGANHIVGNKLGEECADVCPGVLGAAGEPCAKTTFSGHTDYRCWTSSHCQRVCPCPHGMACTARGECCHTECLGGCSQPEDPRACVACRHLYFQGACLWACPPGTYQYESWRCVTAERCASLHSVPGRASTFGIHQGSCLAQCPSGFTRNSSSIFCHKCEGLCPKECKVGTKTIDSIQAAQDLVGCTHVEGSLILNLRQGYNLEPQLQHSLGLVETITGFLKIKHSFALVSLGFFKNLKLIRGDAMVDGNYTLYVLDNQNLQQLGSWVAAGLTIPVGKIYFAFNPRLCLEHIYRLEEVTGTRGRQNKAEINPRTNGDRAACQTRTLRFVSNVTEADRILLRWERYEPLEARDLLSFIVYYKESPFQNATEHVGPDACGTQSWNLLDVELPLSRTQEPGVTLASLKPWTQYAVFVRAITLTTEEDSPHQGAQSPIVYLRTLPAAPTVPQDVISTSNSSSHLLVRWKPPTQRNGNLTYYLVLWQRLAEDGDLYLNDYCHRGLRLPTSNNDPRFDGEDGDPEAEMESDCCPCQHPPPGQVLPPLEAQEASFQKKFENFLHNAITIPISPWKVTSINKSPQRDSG
# Sequence of Insulin receptor-related protein (Homo sapiens) (P14616 747-1297 limits assumed): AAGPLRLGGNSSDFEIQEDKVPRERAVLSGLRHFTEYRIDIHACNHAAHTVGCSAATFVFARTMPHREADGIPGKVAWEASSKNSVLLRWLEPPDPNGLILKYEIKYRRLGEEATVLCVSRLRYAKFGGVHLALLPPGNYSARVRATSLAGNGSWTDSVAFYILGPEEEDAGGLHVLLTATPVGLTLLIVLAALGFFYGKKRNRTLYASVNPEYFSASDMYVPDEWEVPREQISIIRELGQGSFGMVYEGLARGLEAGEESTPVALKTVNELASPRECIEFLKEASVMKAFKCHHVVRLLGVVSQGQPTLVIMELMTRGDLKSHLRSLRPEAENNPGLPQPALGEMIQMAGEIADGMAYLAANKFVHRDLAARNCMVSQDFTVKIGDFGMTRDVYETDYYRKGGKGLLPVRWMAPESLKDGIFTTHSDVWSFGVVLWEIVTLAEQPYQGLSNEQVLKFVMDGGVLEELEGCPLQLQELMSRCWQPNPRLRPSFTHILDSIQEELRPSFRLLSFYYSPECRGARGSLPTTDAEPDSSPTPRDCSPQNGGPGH
# Sequence of Non-receptor tyrosine-protein kinase TYK2 (Homo sapiens) (P29597 whole entry): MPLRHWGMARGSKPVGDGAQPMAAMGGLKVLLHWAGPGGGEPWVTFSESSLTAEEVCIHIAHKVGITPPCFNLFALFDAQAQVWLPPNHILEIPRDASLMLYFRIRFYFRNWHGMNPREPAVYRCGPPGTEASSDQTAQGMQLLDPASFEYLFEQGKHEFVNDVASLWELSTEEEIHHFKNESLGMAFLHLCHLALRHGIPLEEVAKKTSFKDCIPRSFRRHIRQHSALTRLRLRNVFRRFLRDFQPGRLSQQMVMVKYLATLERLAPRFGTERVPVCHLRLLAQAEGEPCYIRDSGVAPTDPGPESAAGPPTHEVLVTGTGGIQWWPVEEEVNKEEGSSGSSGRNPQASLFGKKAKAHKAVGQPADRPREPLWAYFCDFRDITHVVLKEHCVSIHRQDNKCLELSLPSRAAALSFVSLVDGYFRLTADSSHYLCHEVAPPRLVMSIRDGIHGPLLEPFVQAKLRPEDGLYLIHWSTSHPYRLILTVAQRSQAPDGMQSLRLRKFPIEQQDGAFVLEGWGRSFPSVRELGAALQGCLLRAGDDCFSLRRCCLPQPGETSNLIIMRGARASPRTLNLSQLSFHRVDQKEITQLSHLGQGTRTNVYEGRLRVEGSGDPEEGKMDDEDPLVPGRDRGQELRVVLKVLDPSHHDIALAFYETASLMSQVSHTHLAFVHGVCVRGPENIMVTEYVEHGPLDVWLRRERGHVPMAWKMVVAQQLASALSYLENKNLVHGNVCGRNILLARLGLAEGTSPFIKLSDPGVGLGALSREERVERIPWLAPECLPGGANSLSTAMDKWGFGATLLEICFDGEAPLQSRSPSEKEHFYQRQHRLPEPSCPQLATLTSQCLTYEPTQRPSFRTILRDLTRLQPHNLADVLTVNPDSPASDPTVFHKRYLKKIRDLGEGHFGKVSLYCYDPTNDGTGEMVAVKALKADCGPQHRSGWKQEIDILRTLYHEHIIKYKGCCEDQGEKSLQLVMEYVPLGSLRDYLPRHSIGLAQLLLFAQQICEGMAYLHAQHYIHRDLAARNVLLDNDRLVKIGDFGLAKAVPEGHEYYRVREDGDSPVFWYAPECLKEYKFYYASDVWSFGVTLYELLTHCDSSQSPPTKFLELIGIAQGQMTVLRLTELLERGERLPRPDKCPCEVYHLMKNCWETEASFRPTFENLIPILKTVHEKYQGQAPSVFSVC
# Sequence of Tyrosine-protein kinase Fgr (Homo sapiens) (P09769 2-529 limits assumed): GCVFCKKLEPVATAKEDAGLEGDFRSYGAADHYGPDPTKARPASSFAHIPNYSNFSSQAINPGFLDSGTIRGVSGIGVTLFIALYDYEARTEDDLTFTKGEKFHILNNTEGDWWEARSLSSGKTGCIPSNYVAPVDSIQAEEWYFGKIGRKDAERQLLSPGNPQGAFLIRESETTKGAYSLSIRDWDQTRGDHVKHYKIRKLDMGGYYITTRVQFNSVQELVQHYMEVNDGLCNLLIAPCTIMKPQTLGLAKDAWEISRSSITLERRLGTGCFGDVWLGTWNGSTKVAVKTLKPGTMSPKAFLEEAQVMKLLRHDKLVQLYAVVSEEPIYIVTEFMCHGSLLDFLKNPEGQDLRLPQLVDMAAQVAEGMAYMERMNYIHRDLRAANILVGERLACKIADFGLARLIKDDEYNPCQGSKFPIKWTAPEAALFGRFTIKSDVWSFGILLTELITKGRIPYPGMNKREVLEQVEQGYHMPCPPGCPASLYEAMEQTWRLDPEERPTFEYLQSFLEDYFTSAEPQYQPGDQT
structure (smiles),measurement,setting,value
NC(=O)c1cccc(-c2cnc3[nH]ccc3c2)c1,bioavailability,[1],28%
same,inhibition,[2],3.82%
same,Activity,[3],Non-Toxic
same,inhibition,[4],14.9%
same,inhibition,[5],31.5%
same,inhibition,[6],0%
same,Activity,[7],Non-Toxic
same,Activity,HL-60 [8],inactive
same,Activity,HL-60 [9],0.15%
same,AUC(0-inf),[10],434 ng·h/mL
same,inhibition,[11],0%
same,inhibition,[12],0%
same,inhibition,[13],0%
same,inhibition,[14],12.5%
same,T,[15],61 °C
same,Activity,HL-60 [16],1.79%
same,inhibition,[17],13.5%
same,inhibition,[18],16.2%
same,inhibition,[19],2.33%
same,inhibition,[20],0%
same,inhibition,[21],9.63%
same,inhibition,[22],1%
same,viability at 1 µM,HL-60 [23],93.3%
same,inhibition,[24],0%
same,Activity,[25],Non-Toxic
same,IC50,CDK9/cyclin T1,711 nM
same,inhibition,[26],0%
same,inhibition,[27],0%
same,inhibition,[28],26.7%
same,Activity,[29],Active
